# Reference: US9282737B2, “Agent for preventing pollen dispersal” (NOF Corporation, priority 2008, dated 2016)
# Entries after “also recorded” stand apart in the source; their conditions may differ.
# Legend:
# [1] = system: Cryptomeria japonica male flower buds and needle leaves; assay: Evaluation 1: immersion test of Cryptomeria japonica
# Protocol: Evaluation 1 (Immersion Test of Cryptomeria japonica)
# First, as agents to be used for an immersion test of Cryptomeria japonica, fatty acid derivative, fatty acid, polyoxyalkylene derivative, fats and oils and the like shown in Tables 1 and 2 were prepared. Next, many branches (length about 10 cm) of Cryptomeria japonica with 15 male flower buds on the tip were taken from the same tree of Cryptomeria japonica, and each group (five leaves for one group) was immersed in the agents (100 ml) of Tables 1 and 2. After immersing for about 1 min, the branches were taken out from the liquid and placed in a beaker. Browning changes were inspected visually on the male flower buds and needle leaves after one week. The test was performed using Cryptomeria japonica of August and November.
# [2] = HLB of agent; assay type: physicochemical
# [3] = branches of August, immersed about 1 min in agent, browning inspected visually after one week
# [4] = branches of November, immersed about 1 min in agent, browning inspected visually after one week
Molecule,"change of state of male flower bud (August) [1, 3]","change of state of male flower bud (November) [1, 4]",change of state of needle leaf (August) ([1]; in vivo),change of state of needle leaf (November) ([1]; in vivo),"change of state of needle leaf (August) [1, 3]","change of state of needle leaf (November) [1, 4]",HLB [2]
"CCCCCCCC/C=C\CCCCCCCC(=O)O [Comparative Example 1, oleic acid]",markedly browned,no effect; also recorded: no change,no change,no change,–,–,–
"CCCCCCCC/C=C\CCCCCCCC(=O)[O-].[Na+] [compound 2, sodium oleate]",markedly browned,no effect; also recorded: no change,–,–,no change,no change,–
"CCCCC/C=C\C/C=C\CCCCCCCC(=O)O [compound 3, linoleic acid]",markedly browned,no effect; also recorded: no change,no change,no change,–,–,–
methoxypolyoxyethylene oleic acid ester [Example 3],browned,browned,no change,no change,–,–,–
polyoxyethylene dilinoleic acid ester [Example 4],markedly browned,markedly browned,no change,no change,–,–,–
polyoxyethylene glycerol linoleic acid ester [Example 9],browned,browned,no change,no change,–,–,–
polyoxyethylene linoleic acid ester [Example 2],markedly browned,markedly browned,no change,no change,–,–,(HLB = 10.2)
polyoxyethylene linolenic acid ester [Comparative Example 5],an effect was obtained; also recorded: markedly browned,an effect was obtained; also recorded: markedly browned,–,–,–,–,–
polyoxyethylene methylglucoside oleic acid ester [Example 8],browned,browned,no change,no change,–,–,–
polyoxyethylene oleic acid ester [Example 1],browned,browned,–,–,no change,no change,–
polyoxyethylene sorbitan oleic acid ester [Example 6],browned,browned,–,–,–,–,–
polyoxyethylene sorbitan palmitic acid ester [compound 7],no effect; also recorded: no change,no effect; also recorded: no change,–,–,–,–,–
polyoxyethylene sorbitol [Comparative Example 6],not influenced; also recorded: no change,not influenced; also recorded: no change,–,–,not influenced; also recorded: no change,not influenced; also recorded: no change,–
polyoxyethylene sorbitol linoleic acid ester [Example 7],browned,browned,ho change,no change,–,–,–
polyoxyethylene stearic acid ester [compound 4],no effect; also recorded: no change,no effect; also recorded: no change,–,–,–,–,–
polyoxyethylene-block-polyoxypropylene oleic acid ester [Example 5],browned,browned,no change,no change,–,–,–
sunflower oil [compound 9],–,–,no change,no change,–,–,–
